Experiments:
[1] = target: T1, Peroxisome proliferator-activated receptor gamma (Homo sapiens) (UniProt P37231); test: Displacement of fluormone PPAR-green from N-terminal His-tagged human PPARgamma-LBD assessed as logarithm unit binding affinity value at 10 uM after 2 hrs by fluorescence polarization assay
T1 sequence (whole entry): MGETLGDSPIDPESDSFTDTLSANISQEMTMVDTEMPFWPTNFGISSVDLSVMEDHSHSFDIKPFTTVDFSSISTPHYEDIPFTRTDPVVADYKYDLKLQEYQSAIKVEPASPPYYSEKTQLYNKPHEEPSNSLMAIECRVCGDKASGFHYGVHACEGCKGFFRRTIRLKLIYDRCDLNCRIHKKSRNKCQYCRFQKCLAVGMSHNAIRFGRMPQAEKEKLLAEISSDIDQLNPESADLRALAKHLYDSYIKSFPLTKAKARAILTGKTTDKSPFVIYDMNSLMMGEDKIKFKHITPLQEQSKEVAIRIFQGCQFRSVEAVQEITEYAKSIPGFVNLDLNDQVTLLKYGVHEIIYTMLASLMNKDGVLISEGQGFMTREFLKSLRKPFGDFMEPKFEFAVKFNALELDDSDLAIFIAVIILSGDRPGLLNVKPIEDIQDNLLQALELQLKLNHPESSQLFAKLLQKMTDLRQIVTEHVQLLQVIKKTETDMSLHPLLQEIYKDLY

[2] = target: T2, Peroxisome proliferator-activated receptor gamma (Homo sapiens, UniProt P37231); test: Displacement of fluormone PPAR-green from N-terminal His-tagged human PPARgamma-LBD after 2 hrs by fluorescence polarization assay
T2 sequence (P37231 whole entry): T1 sequence (whole entry)

[3] = target: T2, Peroxisome proliferator-activated receptor gamma; test: Partial agonist activity at human PPARgamma-LBD expressed in HEK293T cells assessed as induction of receptor transactivation after 24 hrs by luciferase reporter gene assay; format: functional, cell-based, HEK-293T

Row | SMILES | binding affinity [1] | IC50 [2] | EC50 [3]
1 | Cc1ccc(-c2nn(-c3ccccc3)cc2C(=O)NCC(=O)c2ccccc2)cc1 | 1.26 | – | –
2 | O=C(Oc1ccccc1)c1cn(-c2ccccc2)nc1-c1ccc(F)cc1 | 1.55 | – | –
3 | O=C(Oc1ccccc1)c1cn(-c2ccccc2)nc1-c1ccc(Br)cc1 | 1.22 | – | –
4 | CC(C)S(=O)(=O)c1ccc(COC(=O)c2cn(-c3ccccc3)nc2-c2ccccc2)cc1 | 1.72 | – | –
5 | COc1ccc(-c2nn(-c3ccccc3)cc2C(=O)Oc2ccc(C=O)cc2OC)cc1OC | 1.82 | – | –
6 | Fc1ccc(-c2nn(-c3ccccc3)cc2CNCc2ccccc2)cc1 | 1.63 | – | –
7 | COc1cc(C=O)ccc1OC(=O)c1cn(-c2ccccc2)nc1-c1ccccc1 | 1.99 | – | –
8 | COc1cc(C=O)ccc1OC(=O)c1cn(-c2ccccc2)nc1-c1ccc(Br)cc1 | 1.73 | – | –
9 | O=C(N/N=C/c1cn(-c2ccccc2)nc1-c1ccccc1)c1ccc([N+](=O)[O-])cc1 | 1.37 | – | –
10 | O=C(Oc1cccc2cccnc12)c1cn(-c2ccccc2)nc1-c1ccccc1 | 1.52 | – | –
11 | CC(=O)Nc1ccc(OC(=O)c2cn(-c3ccccc3)nc2-c2ccccc2)cc1 | 1.58 | – | –
12 | COc1cc(C=O)ccc1OC(=O)c1cn(-c2ccccc2)nc1-c1ccc(C2COCCO2)cc1 (stereo not drawn) | 1.5 | – | –
13 | O=C(OCc1ccc([N+](=O)[O-])cc1)c1cn(-c2ccccc2)nc1-c1ccccc1 | 1.38 | – | –
14 | O=C(Oc1ccccc1)c1cn(-c2ccccc2)nc1-c1ccc(Cl)cc1 | 1.15 | – | –
15 | O=C(Oc1ccccc1)c1cn(-c2ccccc2)nc1-c1ccccc1 | 1.63 | – | –
16 | O=C(Oc1ccccc1)c1cn(-c2ccccc2)nc1-c1cccc([N+](=O)[O-])c1 | 1.38 | – | –
17 | S=C(NCc1ccco1)NCc1cn(-c2ccccc2)nc1-c1ccccc1 | 1.73 | – | –
18 | O=C(N/N=C/c1cn(-c2ccccc2)nc1-c1ccc(F)cc1)C(O)c1ccccc1 (stereo not drawn) | 1.68 | – | –
19 | COc1ccc(-c2nn(-c3ccccc3)cc2C(=O)Oc2ccccc2)cc1OC | 1.64 | – | –
20 | Cc1ccc(-c2nn(-c3ccccc3)cc2C(=O)Oc2ccccc2)cc1 | 1.31 | – | –

Now from value to compound:

Row | binding affinity [1] | IC50 [2] | EC50 [3] | SMILES
21 | 1.36 | – | – | COc1cc(C=O)ccc1OC(=O)c1cn(-c2ccccc2)nc1-c1ccc(OC)c([N+](=O)[O-])c1
22 | 1.38 | – | – | CC(=O)c1ccc(OC(=O)c2cn(-c3ccccc3)nc2-c2ccccc2)cc1
23 | 1.81 | – | – | COc1cc(C=O)ccc1OC(=O)c1cn(-c2ccccc2)nc1-c1ccc(C)cc1
24 | 1.9 | 973 nM | 2290 nM | O=C(Oc1ccc([N+](=O)[O-])cc1)c1cn(-c2ccccc2)nc1-c1ccccc1
25 | 1.85 | – | – | COc1ccc(-c2nn(-c3ccccc3)cc2C(=O)Oc2ccc(C)cc2)cc1OC
26 | 1.2 | – | – | COc1ccc(-c2nn(-c3ccccc3)cc2C(=O)OCC(=O)c2ccc(Br)cc2)cc1
27 | 1.81 | – | – | COc1cc(C=O)ccc1OC(=O)c1cn(-c2ccccc2)nc1-c1ccc(Cl)cc1
28 | 1.42 | – | – | COc1ccc(-c2nn(-c3ccccc3)cc2C(=O)OCC(=O)c2ccc(Cl)cc2)cc1
29 | 1.57 | – | – | COc1ccc(-c2nn(-c3ccccc3)cc2C(=O)OCC(=O)c2ccc([N+](=O)[O-])cc2)cc1
30 | 1.98 | – | – | O=C(COC(=O)c1cn(-c2ccccc2)nc1-c1ccccc1)c1ccc(Cl)c([N+](=O)[O-])c1
31 | 1.45 | – | – | COc1ccc(-c2nn(-c3ccccc3)cc2C(=O)Oc2ccccc2)cc1
32 | 1.15 | – | – | O=C(COC(=O)c1cn(-c2ccccc2)nc1-c1ccc(Cl)cc1)c1ccccc1
33 | 1.35 | – | – | COc1cc(C=O)ccc1OC(=O)c1cn(-c2ccccc2)nc1-c1ccc([N+](=O)[O-])cc1
34 | 1.05 | – | – | COc1ccc(-c2nn(-c3ccccc3)cc2C(=O)OCC(=O)c2ccc(C)c([N+](=O)[O-])c2)cc1
35 | 1.82 | – | – | COc1cc(C=O)ccc1OC(=O)c1cn(-c2ccccc2)nc1-c1ccc(F)cc1
36 | 1.37 | – | – | COc1ccc(-c2nn(-c3ccccc3)cc2C(=O)OCC(=O)c2ccccc2Cl)cc1
